Here are results for 18 compounds from ChEMBL document CHEMBL1146762, “Structure-activity relationships of trans-cinnamic acid derivatives on alpha-glucosidase inhibition” (Bioorg Med Chem Lett, 2004).

Each structure is given as a SMILES string.

This test in a line: Inhibition of alpha-glucosidase activity. Also on record: species or system Saccharomyces cerevisiae.

What is called IC50 is the midpoint of a concentration-inhibition curve. Read a high IC50 as weaker potency in that assay. On to `CCCCCCOc1ccc(/C=C/C(=O)O)cc1`, for which the IC50 is > 5000 µM.
With `CCOC(=O)/C=C/c1ccccc1` [ETHYL CINNAMATE] the figure was > 5000 µM.
With `O=C(O)/C=C/c1cccc(O)c1` the figure was 1270 µM; with `O=C(O)/C=C/c1ccc(O)cc1` [COUMARIC ACID], 200 µM.
With `COc1ccc(/C=C/C(=O)O)cc1` [4-METHOXYCINNAMIC ACID] the figure was 40 µM; with `CCCCOc1ccc(/C=C/C(=O)O)cc1`, > 5000 µM; with `O=C(O)/C=C/c1ccc(F)cc1`, 270 µM.
Regarding `O=C(O)/C=C/c1ccc(OCc2ccccc2)cc1`, the IC50 is > 5000 µM.
With `COc1ccccc1/C=C/C(=O)O` [COUMARINIC ACID METHYL ETHER] the figure was 4340 µM; with `O=C(O)/C=C/c1ccc(Oc2ccccc2)cc1`, 440 µM; with `O=C(O)/C=C/c1ccc(Cl)cc1`, 390 µM.
With `CCOC(=O)/C=C/c1ccc(OC)cc1` [4-METHOXY ETHYL CINNAMATE] the figure was 50 µM; with `COc1cccc(/C=C/C(=O)O)c1`, 580 µM; with `OC[C@H]1NC[C@H](O)[C@@H](O)[C@@H]1O` [DUVOGLUSTAT], 5600 µM.
Consider `O=C(O)/C=C/c1ccccc1` [CINNAMIC ACID], for which the IC50 was > 5000 µM.
With `O=C(O)/C=C/c1ccc([N+](=O)[O-])cc1` the figure was > 5000 µM; with `O=C(O)/C=C/c1ccccc1O` [O-COUMARIC ACID], > 5000 µM.
With `O=C(O)/C=C/c1ccc(Br)cc1` the figure was > 5000 µM.
